Assay results from patent US10717737B2, “Cyclopropylamines as LSD1 inhibitors” (Incyte Corporation, priority 2014, dated 2020).

Target: LSD1 (Homo sapiens (Human), UniProt O60341)
Assay: biochemical
Experimental: LANCE LSD1/KDM1A demethylase assay—10 μL of 1 nM LSD-1 enzyme (ENZO BML-SE544-0050) in the assay buffer (50 mM Tris, pH 7.5, 0.01% Tween-20, 25 mM NaCl, 5 mM DTT) were preincubated for 1 hour at 25° C. with 0.8 μL compound/DMSO dotted in black 384 well polystyrene plates. […] After stopping the reactions plates were incubated for 30 minutes and read on a PHERAstar FS plate reader (BMG Labtech).

Row | IC50 [nM] | Compound
1 | < 100 | N#Cc1ccc(CC2(CN[C@@H]3C[C@H]3c3ccccc3)CCN(CC3(C(=O)O)CC3)CC2)c(F)c1 [Example 74, 1-{[4-(4-cyano-2-fluorobenzyl)-4-({[(1R,2S)-2-phenylcyclopropyl]amino}methyl)piperidin-1-yl]methyl}cyclopropanecarboxylic Acid]
2 | < 100 | COCC1(CN[C@@H]2C[C@H]2c2ccccc2)CCN(C(=O)N2CCC(O)CC2)CC1 [Example 112, 1-{[4-(methoxymethyl)-4-({[(1R,2S)-2-phenylcyclopropyl]amino}methyl)piperidin-1-yl]carbonyl}piperidin-4-ol]
